In US8099262B2, “Estimation of clinical cut-offs” (priority 2004, dated 2012):
Entries after “also recorded” stand apart in the source; their conditions may differ. Like-named read-outs stand apart in the source and are kept apart here.

Legend:
HIV [1] = format: in vivo; design: key to effect range (difference between maximum and minimum effect, log viral load): log viral load drop; max effect (FC 1) minus min effect (plateau); Linear Regression Higher CO / Linear Regression Lower CO: unit not given here
Excerpt: Databases of studies for patients with tenofovir containing regimens and consisting of patient baseline demographic characteristics, clinical outcome results with viral load and resistance data (Fold change), were retrieved and remapped according to a common structure allowing a meta-analysis. The structure consisted of baseline sequence, viral load data set, viral load measurements and sampling dates (for example viral load within 3 months of starting new regimen and viral load assessment 8 and/or 24 weeks after beginning new regimen), CD4+ data set which contains CD4+ counts and sampling dates, resistance data set containing the fold changes to different antivirals and sampling dates; patient data set with patient information such as age, gender, race, treatment history; treatment data set with drug regimens, start and stop dates, doses, formulations, frequency of intake, regimen changes after resistance tests. The structure of such a clinical data base can be seen in FIG. 1a.
The viral load response data includes censored (<400 copies/ml) values. Parameters of the underlying uncensored distribution were estimated by maximum likelihood estimation in SAS (proc lifereg). The viral load response data are corrected for baseline viral load and cPSS.
The models applied were linear regression, logistic regression, and a classification tree. These models also took into account effects of the concomitant HIV drugs (PSS), baseline viral load (Baseline Log(V1)i) and, optionally, treatment history in order to avoid bias introduced by imbalances of important characteristics. From the models, a prediction of clinical outcome could be made at different levels of the baseline fold change resistance.
In the linear regression model, the proposed equation was the following: LogVL dropi=β0+β1*Baseline Log(V1)i+β2*PSSi+β3*(1/FC)i+ξi where i represented the patient, β0 the intercept, β1, β2 and β3 coefficients indicated the increase in log viral load drop per unit increase of respectively the baseline log VL, the number of sensitive drugs in the background regimen and the inverse of the baseline fold change. ξi was a random error term indicating the deviation of the patient from the value predicted by the model. Interactions between all the factors were evaluated and other baseline characteristics, i.e treatment history, were added if relevant.
When viral load results under the detection limits are obtained, biases could be introduced if the detection limit values are considered when calculating viral load drops and using those in the linear regression model. To avoid this, censoring needed to be taken into account and therefore the PROC LIFEREG facility in the SAS package was employed.
Clinical responses were predicted in the models developed in previous step 2. […] In order to determine the fold changes at which clinically relevant diminished clinical responses can be observed, three definitions of clinical cut-offs were considered:
The maximum effect was defined as the treatment effect at fold change 1, and the minimum effect was defined as the treatment effect at a very high fold change (i.e. when the curve reached a plateau). The effect range was then the difference between the maximum effect and the minimum effect.

HIV [2] = format: in vivo; design: key to Modelled Lower Cutoff & Confidence Interval / Modelled Upper Cutoff & Confidence Interval: fold change (FC) matching VL drop at 20% and 80% loss of activity; conditions: preferred embodiment of linear regression
Excerpt: In a preferred embodiment of the linear regression model, more factors are included in order to obtain a more refined prediction of viral load response. These factors include for example a sensitivity score per drug class in addition to the overall sensitivity score of the background treatment (cPSS), previous exposure to the drug (naïve (Yes/No), naïve to PIs, naïve to NRTI's, etc. . . . ). Furthermore, in the preferred embodiment, the fold change is transformed before inserting the figures into the model. The transformation to the fold change comprises a power-transformation ranging from FC^−3 to FC^1. In addition, a quadratic term in cPSS is preferably added.
The NRTI[naïve] value represents whether the patient is naïve to nucleoside RT inhibitors. If yes, value=1, if no, value=0. The PSS[NRTI} represents the phenotypic sensitivity score for NRTIs, i.e the number of active NRTIs in the background regimen for the patient.
Stage 3: Determine Fold change equivalent to VL drop at 20% and 80% loss of activity by inserting values for VL drop into the above equation and calculating FC. […]

HIV [3] = conditions: Definition 3
Excerpt: This methodology constructs tree-structured rules in order to classify patients as successes (undetectable pathogen load after treatment) and failures. […] Imbalances for such parameters may therefore influence the decision taken for a certain parameter.
The classification tree poses queries, in which the answer to each query results in either the left or the right branch of the tree being taken at each stage. […] If yes, the left branch is taken, if no the right branch is taken. As with the methods of the aspects of the invention described previously, the other factors queried include the log baseline pathogen load and the phenotypic sensitivity score. The numbers at the termini of the final branches represent the response rate (1=100% response).
The clinical cut-off is chosen as the fold change that makes the difference between the two groups as large as possible.
In the classification trees model, tree-structured rules were constructed in order to classify patients in successes (undetectable viral load after treatment) and failures. The same parameters as for the other techniques were considered.
This implies that imbalances for other parameters may influence the decision taken for a certain parameter.
Definition 3 was a variant of definition 2.
Using definition 3, breakpoints determined by classification trees are applicable only to a subset of patients unless fold change is selected at the first tree node.

[4] = Definition 1, Subgroup 2: PSS = 0, baseline Log (VL) = 4
[5] = Definition 1, Subgroup 3: PSS = 2, baseline Log (VL) = 5
[6] = Definition 2, Overall (whole population)
[7] = Definition 2, Subgroup 1: PSS = 2, baseline Log (VL) = 4
[8] = Definition 2, Subgroup 2: PSS = 0, baseline Log (VL) = 4
[9] = Definition 2, Subgroup 3: PSS = 2, baseline Log (VL) = 5
[10] = Definition 2, two active drugs besides the drug, baseline Log(VL) of 4
[11] = Definition 3, Subgroup 1: PSS = 2, baseline Log (VL) = 4
[12] = Definition 3, Subgroup 2: PSS = 0, baseline Log (VL) = 4
[13] = Definition 3, Subgroup 3: PSS = 2, baseline Log (VL) = 5
[14] = preliminary linear regression analysis, virologic response at 8 weeks

CC(C)OC(=O)OCOP(=O)(CO[C@H](C)Cn1cnc2c(N)ncnc21)OCOC(=O)OC(C)C.O=C(O)/C=C/C(=O)O [TDF]
Linear Regression Lower CO (clinical cut-off, fold change) (HIV [1]; Definition 1, Subgroup 1: PSS = 2, baseline Log (VL) = 4): 3.73 | Linear Regression Higher CO (clinical cut-off, fold change) (HIV [1]; Definition 1, Subgroup 1: PSS = 2, baseline Log (VL) = 4, listed as Tenofovir): >assay | Linear Regression Higher CO (clinical cut-off, fold change) (HIV [1]; Definition 1, Subgroup 1: PSS = 2, baseline Log (VL) = 4, listed as tenofovir): No higher cut-off could be derived; also recorded: >assay | Linear Regression Higher CO (HIV [1]; [4]): 3.8 | Linear Regression Lower CO (HIV [1]; [4]): 1.68 | Linear Regression Higher CO (HIV [1]; [5]): >assay | Linear Regression Lower CO (HIV [1]; [5]): >assay | Linear Regression Higher CO (HIV [1]; [6]): 5 | Linear Regression Lower CO (HIV [1]; [6]): 1.25 | Linear Regression Higher CO (HIV [1]; [7]): 5 | Linear Regression Lower CO (HIV [1]; [7]): 1.25 | Linear Regression Higher CO (HIV [1]; [8]): 5 | Linear Regression Lower CO (HIV [1]; [8]): 1.25 | Linear Regression Higher CO (HIV [1]; [9]): 5 | Linear Regression Lower CO (HIV [1]; [9]): 1.25 | drop in log viral load at fold change 1 (HIV [1]; [10]): −1.48 | drop in log viral load at the maximum (asymptotic) fold change (HIV [1]; [10]): −0.28 | effect range (difference between maximum and minimum effect, log viral load) (HIV [1]; [10]): 1.2 | Linear Regression Higher CO (HIV [1]; Definition 3, Overall): 5 | Linear Regression Lower CO (HIV [1]; Definition 3, Overall): 1.1 | Linear Regression Higher CO (HIV [1]; [11]): 5 | Linear Regression Lower CO (HIV [1]; [11]): 1.1 | Linear Regression Higher CO (HIV [1]; [12]): 5 | Linear Regression Lower CO (HIV [1]; [12]): 1.1 | Linear Regression Higher CO (HIV [1]; [13]): 5 | Linear Regression Lower CO (HIV [1]; [13]): 1.1 | VIROLOGIC RESPONSE Baseline FC for 80% REDUCTION of response (upper cutoff) (HIV [1]; preliminary linear regression analysis, definition 2): 2.5 | VIROLOGIC RESPONSE 20% REDUCTION (fold change, preliminary VirtualPhenotype Clinical Cutoff) (HIV [1]; [14]): 1.2 | VIROLOGIC RESPONSE 80% REDUCTION (fold change, preliminary VirtualPhenotype Clinical Cutoff) (HIV [1]; [14]): 2.5 | lower cut-off derived from the Table (HIV [1]; summary over models, 2 active drugs besides the drug, baseline log(VL) of 4): 1.2 | Modelled Lower Cutoff & Confidence Interval (HIV [2]): 1.0 | Modelled Upper Cutoff & Confidence Interval (HIV [2]): 2.0 | Classification Tree Lower CO (HIV [3]; Overall): 1.15 | Classification Tree Lower CO (HIV [3]; Subgroup 1: PSS = 2, baseline Log (VL) = 4): 1.15 | Classification Tree Lower CO (HIV [3]; Subgroup 2: PSS = 0, baseline Log (VL) = 4): 1.15 | Classification Tree Lower CO (HIV [3]; Subgroup 3: PSS = 2, baseline Log (VL) = 5): 1.15
